The values that follow come from US20080200454A1, “CARBON-LINKED TETRAHYDRO-PYRAZOLO-PYRIDINE MODULATORS OF CATHEPSIN S” (priority 2007, published 2008).

Usually IC50 stands for the concentration needed to halve the response being measured.

Recombinant human cathepsin S (CatS), sequence (P25774 115-331): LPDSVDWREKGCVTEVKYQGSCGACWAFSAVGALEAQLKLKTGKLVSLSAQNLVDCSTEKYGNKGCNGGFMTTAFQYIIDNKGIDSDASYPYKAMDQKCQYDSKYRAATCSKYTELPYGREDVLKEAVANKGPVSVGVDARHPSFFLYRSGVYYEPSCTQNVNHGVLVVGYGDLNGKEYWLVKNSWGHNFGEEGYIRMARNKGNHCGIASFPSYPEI

One test has as its target Recombinant human cathepsin S (CatS) (Homo sapiens, UniProt P25774). In words: Recombinant human cathepsin S (CatS) inhibition assay, fluorogenic substrate Z-Valine-Valine-Arginine-AMC.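 Further: Baculovirus-expressed CatS in pH 5.0 sodium acetate buffer with DTT and NaCl, fluorescence read each minute over 20 min, inhibition derived from rate slope.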
Conditions: not given
On to `CS(=O)(=O)N1CCc2c(c(-c3ccc(Cl)c(C#Cc4ccc(CN[C@H](CO)c5ccccc5)cc4)c3)nn2CCCN2CCN(c3ccccn3)CC2)C1` [Example 218, (2S)-2-[({4-[(2-Chloro-5-{5-(methylsulfonyl)-1-[3-(4-pyridin-2-ylpiperazin-1-yl)propyl]-4,5,6,7-tetrahydro-1H-pyrazolo[4,3-c]pyridin-3-yl}phenyl)ethynyl]phenyl}methyl)amino]-2-phenylethanol], for which the IC50 was 30 nM.

Turning to `CS(=O)(=O)N1CCc2c(c(-c3ccc(Cl)c(CCCN4CCOCC4)c3)nn2CCCN2CCC(N3CCCC3=O)CC2)C1` [Example 105, 1-[1-(3-{3-[4-Chloro-3-(3-morpholin-4-yl-propyl)-phenyl]-5-methanesulfonyl-4,5,6,7-tetrahydro-pyrazolo[4,3-c]pyridin-1-yl}-propyl)-piperidin-4-yl]-pyrrolidin-2-one], the IC50 was determined as 1430 nM.

In the case of `NC(=O)C(=O)N1CCc2c(c(-c3ccc(Cl)c(C#Cc4ccc(Cl)c(C(=O)NC[C@@H]5CCCN5)c4)c3)nn2CCCN2CCSCC2)C1` [Example 557, 5-[(5-{5-[Amino(oxo)acetyl]-1-(3-thiomorpholin-4-ylpropyl)-4,5,6,7-tetrahydro-1H-pyrazolo[4,3-c]pyridin-3-yl}-2-chlorophenyl)ethynyl]-2-chloro-N-[(2S)-pyrrolidin-2-ylmethyl]benzamide], the IC50 was determined as 30 nM.

On to `CS(=O)(=O)N1CCc2c(c(-c3ccc(Cl)c(C#Cc4nnc5n4CCNC5)c3)nn2CCCN2CCOCC2)C1` [Example 403, 3-({2-Chloro-5-[5-(methylsulfonyl)-1-(3-morpholin-4-ylpropyl)-4,5,6,7-tetrahydro-1H-pyrazolo[4,3-c]pyridin-3-yl]phenyl}ethynyl)-5,6,7,8-tetrahydro[1,2,4]triazolo[4,3-a]pyrazine], for which the IC50 was 8520 nM.

Take `CS(=O)(=O)N1CCc2c(c(-c3ccc(Cl)c(CCc4ccc(CO)cc4)c3)nn2CCCN2CCOCC2)C1` [Example 61, [4-(2-{2-Chloro-5-[5-methanesulfonyl-1-(3-morpholin-4-yl-propyl)-4,5,6,7-tetrahydro-1H-pyrazolo[4,3-c]pyridin-3-yl]-phenyl}-ethyl)-phenyl]-methanol]: the IC50 is 200 nM.

Regarding `CS(=O)(=O)N1CCc2c(c(-c3ccc(Cl)c(CCCN4CCCC4)c3)nn2CCCN2CCC(N3CCCC3=O)CC2)C1` [Example 101, 1-[1-(3-{3-[4-Chloro-3-(3-pyrrolidin-1-yl-propyl)-phenyl]-5-methanesulfonyl-4,5,6,7-tetrahydro-pyrazolo[4,3-c]pyridin-1-yl}-propyl)-piperidin-4-yl]-pyrrolidin-2-one], the IC50 is 2060 nM.

In the case of `CS(=O)(=O)N1CCc2c(c(-c3ccc(Cl)c(C#Cc4ccc5[nH]ccc5c4)c3)nn2CCCN2CCOCC2)C1` [Example 1, 3-[4-Chloro-3-(1H-indol-5-ylethynyl)-phenyl]-5-methanesulfonyl-1-(3-morpholin-4-yl-propyl)-4,5,6,7-tetrahydro-1H-pyrazolo[4,3-c]pyridine], the IC50 was 190 nM.

`CS(=O)(=O)N1CCc2c(c(-c3ccc(Cl)c(C#Cc4ccc5c(c4)CNCC5)c3)nn2CC(O)CN2CCCCC2)C1` (centres unmarked) [Example 134, 1-{3-[4-Chloro-3-(1,2,3,4-tetrahydro-isoquinolin-7-ylethynyl)-phenyl]-5-methanesulfonyl-4,5,6,7-tetrahydro-pyrazolo[4,3-c]pyridin-1-yl}-3-piperidin-1-yl-propan-2-ol]: the IC50 amounted to 180 nM.

Regarding `CS(=O)(=O)N1CCc2c(c(-c3ccc(Cl)c(CCCCCO)c3)nn2CCCN2CCOCC2)C1` [Example 301, 5-{2-Chloro-5-[5-(methylsulfonyl)-1-(3-morpholin-4-ylpropyl)-4,5,6,7-tetrahydro-1H-pyrazolo[4,3-c]pyridin-3-yl]phenyl}pentan-1-ol], the IC50 stood at 7050 nM.

Take `CCNCc1cc(C#Cc2cc(-c3nn(CCCN4CCCCC4)c4c3CN(C(=O)C(N)=O)CC4)ccc2Cl)ccc1Cl` [Example 592, 2-{3-[4-Chloro-3-({4-chloro-3-[(ethylamino)methyl]phenyl}ethynyl)phenyl]-1-(3-piperidin-1-ylpropyl)-1,4,6,7-tetrahydro-5H-pyrazolo[4,3-c]pyridin-5-yl}-2-oxoacetamide]: the IC50 worked out at 20 nM.

As to `CS(=O)(=O)N1CCc2c(c(-c3ccc(Cl)c(C#Cc4ccc(CNC5CCc6ccccc65)cc4)c3)nn2CCCN2CCN(c3ccccn3)CC2)C1` (centres unmarked) [Example 470, N-({4-[(2-Chloro-5-{5-(methylsulfonyl)-1-[3-(4-pyridin-2-ylpiperazin-1-yl)propyl]-4,5,6,7-tetrahydro-1H-pyrazolo[4,3-c]pyridin-3-yl}phenyl)ethynyl]phenyl}methyl)-2,3-dihydro-1H-inden-1-amine], the IC50 amounted to 50 nM.

As to `CS(=O)(=O)N1CCc2c(c(-c3ccc(Cl)c(C#Cc4ccc(CNCc5ccc(Cl)cc5)cc4)c3)nn2CC(O)CN2CCC(C(N)=O)CC2)C1` (centres unmarked) [Example 363, 1-{3-[3-(4-Chloro-3-{[4-({[(4-chlorophenyl)methyl]amino}methyl)phenyl]ethynyl}phenyl)-5-(methylsulfonyl)-4,5,6,7-tetrahydro-1H-pyrazolo[4,3-c]pyridin-1-yl]-2-hydroxypropyl}piperidine-4-carboxamide], the IC50 stood at 90 nM.

For `CS(=O)(=O)N1CCc2c(c(-c3ccc(Cl)c(C#Cc4ccc5c(c4)CN(C4CC4)CC5)c3)nn2CCCN2CCOCC2)C1` [Example 396, 7-({2-Chloro-5-[5-(methylsulfonyl)-1-(3-morpholin-4-ylpropyl)-4,5,6,7-tetrahydro-1H-pyrazolo[4,3-c]pyridin-3-yl]phenyl}ethynyl)-2-cyclopropyl-1,2,3,4-tetrahydroisoquinoline], the IC50 amounted to 230 nM.

Staying with this test, now noted: CatS IC50.
Consider `C=CCN1CCc2cc(C#Cc3cc(-c4nn(CCCN5CCOCC5)c5c4CN(S(C)(=O)=O)CC5)ccc3Cl)ccc2C1` [Example 527, 6-({2-Chloro-5-[5-(methylsulfonyl)-1-(3-morpholin-4-ylpropyl)-4,5,6,7-tetrahydro-1H-pyrazolo[4,3-c]pyridin-3-yl]phenyl}ethynyl)-2-prop-2-en-1-yl-1,2,3,4-tetrahydroisoquinoline], for which the IC50 turned out to be 300 nM.

With `CS(=O)(=O)N1CCc2c(c(-c3ccc(Cl)c(C#Cc4ccc(CN[C@@H]5Cc6ccccc6[C@@H]5O)cc4)c3)nn2CCCN2CCN(c3ccccn3)CC2)C1` [Example 213, (1S,2R)-2-[({4-[(2-Chloro-5-{5-(methylsulfonyl)-1-[3-(4-pyridin-2-ylpiperazin-1-yl)propyl]-4,5,6,7-tetrahydro-1H-pyrazolo[4,3-c]pyridin-3-yl}phenyl)ethynyl]phenyl}methyl)amino]-2,3-dihydro-1H-inden-1-ol], the IC50 amounted to 20 nM.

In the case of `NC(=O)N1CCc2c(c(-c3ccc(Cl)c(C#Cc4ccc(Cl)c(CNC5CC5)c4)c3)nn2CCCN2CCSCC2)C1` [Example 605, 3-[4-Chloro-3-({4-chloro-3-[(cyclopropylamino)methyl]phenyl}ethynyl)phenyl]-1-(3-thiomorpholin-4-ylpropyl)-1,4,6,7-tetrahydro-5H-pyrazolo[4,3-c]pyridine-5-carboxamide], the IC50 came to 40 nM.

Turning to `CN(C)c1ccc(CNCc2ccc(C#Cc3cc(-c4nn(CCCN5CCSCC5)c5c4CN(C(N)=O)CC5)ccc3Cl)cc2)cc1` [Example 175, 3-[4-Chloro-3-({4-[({[4-(dimethylamino)phenyl]methyl}amino)methyl]phenyl}ethynyl)phenyl]-1-(3-thiomorpholin-4-ylpropyl)-1,4,6,7-tetrahydro-5H-pyrazolo[4,3-c]pyridine-5-carboxamide], the IC50 is 190 nM.

Consider `C[C@H]1COCCN1CCCn1nc(-c2ccc(Cl)c(C#Cc3ccc4c(c3)CN(C3CC3)CC4)c2)c2c1CCN(C(=O)C(N)=O)C2` [Example 283, 2-(3-{4-Chloro-3-[(2-cyclopropyl-1,2,3,4-tetrahydroisoquinolin-7-yl)ethynyl]phenyl}-1-{3-[(3S)-3-methylmorpholin-4-yl]propyl}-1,4,6,7-tetrahydro-5H-pyrazolo[4,3-c]pyridin-5-yl)-2-oxoacetamide], for which the IC50 worked out at 100 nM.

For the compound `NC(=O)N1CCc2c(c(-c3ccc(Cl)c(C#Cc4cccc(CNCc5ccc(F)cc5)c4)c3)nn2CCCN2CCSCC2)C1` [Example 517, 3-(4-Chloro-3-{[3-({[(4-fluorophenyl)methyl]amino}methyl)phenyl]ethynyl}phenyl)-1-(3-thiomorpholin-4-ylpropyl)-1,4,6,7-tetrahydro-5H-pyrazolo[4,3-c]pyridine-5-carboxamide], the IC50 is 190 nM.

In the case of `CS(=O)(=O)N1CCc2c(c(-c3ccc(Cl)c(C#Cc4ccc(CNCCc5cccs5)cc4)c3)nn2CCCN2CCOCC2)C1` [Example 423, N-{[4-({2-Chloro-5-[5-(methylsulfonyl)-1-(3-morpholin-4-ylpropyl)-4,5,6,7-tetrahydro-1H-pyrazolo[4,3-c]pyridin-3-yl]phenyl}ethynyl)phenyl]methyl}-2-(2-thienyl)ethanamine], the IC50 was found to be 270 nM.

With `COc1ccccc1C#Cc1cc(-c2nn(CCCN3CCOCC3)c3c2CN(S(C)(=O)=O)CC3)ccc1Cl` [Example 24, 3-[4-Chloro-3-(2-methoxy-phenylethynyl)-phenyl]-5-methanesulfonyl-1-(3-morpholin-4-yl-propyl)-4,5,6,7-tetrahydro-1H-pyrazolo[4,3-c]pyridine], the IC50 came out at 560 nM.

For the compound `NC(=O)N1CCc2c(c(-c3ccc(Cl)c(C#Cc4ccc(CNCc5ccc(Cl)cc5)cc4)c3)nn2CCCN2CCC3(CC2)OCCO3)C1` [Example 462, 3-(4-Chloro-3-{[4-({[(4-chlorophenyl)methyl]amino}methyl)phenyl]ethynyl}phenyl)-1-[3-(1,4-dioxa-8-azaspiro[4.5]dec-8-yl)propyl]-1,4,6,7-tetrahydro-5H-pyrazolo[4,3-c]pyridine-5-carboxamide], the IC50 was 50 nM.

On to `CS(=O)(=O)N1CCc2c(c(-c3ccc(Cl)c(C#Cc4ccc(CNCc5ccc(Cl)cc5)cc4)c3)nn2CCCN2CCC(CO)CC2)C1` [Example 337, (1-{3-[3-(4-Chloro-3-{[4-({[(4-chlorophenyl)methyl]amino}methyl)phenyl]ethynyl}phenyl)-5-(methylsulfonyl)-4,5,6,7-tetrahydro-1H-pyrazolo[4,3-c]pyridin-1-yl]propyl}piperidin-4-yl)methanol], for which the IC50 amounted to 70 nM.
